In ChEMBL document CHEMBL3638544, “Phenalkylamine derivatives, pharmaceutical compositions containing them, and their use in therapy” (2015) one finds Ki data, which are given here for 1 compound.

The target in this assay is T1, Sodium- and chloride-dependent glycine transporter 1 (Homo sapiens, UniProt P48067).
T1 sequence (P48067 whole entry): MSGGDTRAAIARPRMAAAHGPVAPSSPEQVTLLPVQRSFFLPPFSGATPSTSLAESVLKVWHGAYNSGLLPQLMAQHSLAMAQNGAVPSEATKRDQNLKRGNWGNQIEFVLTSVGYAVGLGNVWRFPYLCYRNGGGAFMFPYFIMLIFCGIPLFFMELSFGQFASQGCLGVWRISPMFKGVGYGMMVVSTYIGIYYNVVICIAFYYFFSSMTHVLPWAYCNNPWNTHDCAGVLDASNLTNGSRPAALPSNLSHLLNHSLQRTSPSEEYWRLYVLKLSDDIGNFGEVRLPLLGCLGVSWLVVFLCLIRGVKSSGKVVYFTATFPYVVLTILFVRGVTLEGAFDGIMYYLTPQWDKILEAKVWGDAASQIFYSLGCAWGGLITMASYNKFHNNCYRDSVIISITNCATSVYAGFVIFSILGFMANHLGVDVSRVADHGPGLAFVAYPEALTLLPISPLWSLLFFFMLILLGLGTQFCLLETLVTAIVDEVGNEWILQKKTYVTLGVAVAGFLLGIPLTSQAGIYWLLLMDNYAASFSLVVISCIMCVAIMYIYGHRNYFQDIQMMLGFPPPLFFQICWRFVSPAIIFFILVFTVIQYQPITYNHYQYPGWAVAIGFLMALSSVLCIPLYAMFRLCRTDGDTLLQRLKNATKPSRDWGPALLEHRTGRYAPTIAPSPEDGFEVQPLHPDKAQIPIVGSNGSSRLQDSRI
Put plainly: Radioligand Binding Assay: Radioligand binding to human GlyT1c transporter-expressing membranes was determined as described in Mezler et al., Molecular Pharmacology 74:1705-1715, 2008.

For orientation: Ki means a dissociation constant, usually derived from enzyme kinetics or from competition with a known ligand. Read a high Ki as lower affinity. For the compound `NCC(Cc1ccccc1)c1ccc2c(c1)CN(S(=O)(=O)CC1CC1)CC2` (stereo unspecified), the Ki was under 10 µM.
